Experiments:
[1] = system: U44069 induced pulmonary hypertension; assay type: in vivo, sheep
Excerpt: (§1) The efficacy of benzindene prostaglandins, such as UT-15, for treating pulmonary hypertension can be assessed by determining the hemodynamics associated with pulmonary hypertension. In particular, measurements of pulmonary arterial pressure (PPA), left atrial pressure (PLA), central venous pressure (PCV), systemic arterial pressure (PSYS), heart rate (HR), and cardiac output (CO) are useful in determining the effects of benzindene prostaglandins delivered by inhalation or parenterally.
(§2) Heart rate was determined by measuring the time (seconds) required for 25 heart beats to occur (t25) as indicated by the pulsations on the blood flow meter; the beats per minute (BPM) were calculated by the following equation: […]
(§3) All pressure may be monitored by commercially available transducers, such as Model 1290A HEWLETT PACKARD™ transducer (Andover, Mass.), which is attached to VALIDYNE CD19A Carrier Dmod. Amplifiers (Northridge, Calif.). Cardiac output may be measured by a Transonic Systems T101 Ultrasonic Bloodflow Meter (Ithaca, N.Y.). The pressure and blood flow signals may be recorded on ASTROMED MT-9500 Stripchart Recorder (West Warwick, R.I.) and digitally recorded with a personal computer using Easy Data Acquisition Software (Nashville, Tenn.).
Sheep were used as the animal model of choice for these experiments for a number of reasons. First is the docile nature of sheep. They will stand quietly in metabolic cages without having to utilize tranquilizing drugs, which have the potential to complicate experimental results. Second, sheep are large enough to allow direct measurement of CO, PPA, PLA, PCV, and PSYS. Sheep are also large enough to allow direct aerosolization of substances into the lung via trachoestomy thereby preventing swallowing of drugs and thus eliminating a possible secondary route of administration of UT-15. Third, sheep can tolerate a great amount of instrumentation with little or no discomfort. Fourth, sheep have been utilized for several years as an animal model of pulmonary arterial hypertension and thus, there is a great amount of historical data with which to compare the results. The agent chosen to induce pulmonary arterial hypertension was a PGH2 analog, U44069 (9,11-dideoxy,9α,11α-epoxymethanoprostaglandin F2α). The reasons for using U44069 are that it is a very potent pulmonary vasoconstrictor, its characteristics are very similar to endogenously formed thromboxane A2, and it can be titrated to induce the desired degree of pulmonary vasoconstriction. U44069 was mixed with sterile normal saline immediately prior to being used and was protected from light by wrapping the solution with aluminum foil. The concentration of U44069 was adjusted such that a minimal flow rate of 0.8 ml per min was being infused into the sheep. This was done because more concentrated U44069 would have to be infused at very low rates and often causes “pulses” of U44069 due to the infusion characteristics of roller pumps. The U44069 pulses cause vasoconstriction “spikes” and thus would create induce a non-steady-state.
Six yearling sheep (3 males, 3 females; 21-37 kg) were fasted 18-24 hours and initially anesthetized with a short acting barbiturate (thiopental) to allow intubation of the sheep. Halothane gas anesthesia (1.5-2.5%) was then used for the surgical procedures. Via a left thoracotomy, a Transonic blood flow probe was placed around the main pulmonary artery, silastic catheters placed in the main pulmonary artery and left atrium. After approximately 7 days the sheep were reanesthetized and the left carotid artery cannulated, a Cordis Introducer Sheath inserted in the left jugular vein, and a tracheotomy made. The sheep were allowed to recover for another 3-5 days prior to experimentation. […]

blood platelets = settings: cited from earlier work
sheep [2] = assay: Intravenous and aerosolized UT-15 dose response effects on baseline hemodynamics; assay type: in vivo; settings: baseline conditions; for central venous pressure (PCV) relative to baseline / pulmonary arterial pressure (PPA) relative to baseline: any dose; for systemic arterial pressure (PSYS): any administration rate; for cardiac output (CO) relative to baseline: any delivery rate
Excerpt: as §1, §2, §3
Inhalation solutions were prepared by combining 1.25 grams of Sodium Citrate (Hydrous), 0.125 Citric Acid (Anhydrous), 0.05 grams of Sodium Hydroxide (NF/BP), 0.125 grams of UT-15, and approximately 250 ml of Water for Injection according to the following steps.
Working solution was made by adding sterile saline to dilute the UT15 stock solution or placebo to the desired amount (depending on dose desired, weight of sheep, and duration of aerosolizing). This solution was then added to the nebulizer in volumes not exceeding 5 ml until entire amount was used.
Six yearling sheep (3 males, 3 females; 21-37 kg) were fasted 18-24 hours and initially anesthetized with a short acting barbiturate (thiopental) to allow intubation of the sheep. Halothane gas anesthesia (1.5-2.5%) was then used for the surgical procedures. Via a left thoracotomy, a Transonic blood flow probe was placed around the main pulmonary artery, silastic catheters placed in the main pulmonary artery and left atrium. After approximately 7 days the sheep were reanesthetized and the left carotid artery cannulated, a Cordis Introducer Sheath inserted in the left jugular vein, and a tracheotomy made. The sheep were allowed to recover for another 3-5 days prior to experimentation. These sheep were used to allow measurement of pulmonary arterial pressure (PPA), left atrial pressure (PLA), central venous pressure (PCV), systemic arterial pressure (PSYS), heart rate (HR), and cardiac output (CO) after baseline measurements were made for a minimum of 30 minutes.
Two separate experiments were conducted to determine the dose response effects of intravenously infused UT-15 on baseline hemodynamics and aerosolized UT-15 on baseline hemodynamics. For the infusion experimental protocol, after a 30 minute baseline was established, UT-15 was infused intravenously at 3 rates (250, 500 and 1000 ng per kg per min). In three sheep, the infusion rates lasted for 30 minutes each, and for the other three sheep, the infusions were for 60 minutes each.
The aerosolized UT-15 protocol involved establishing a 30 minute baseline, then administering aerosolized UT-15 via a tracheostromy at rates of […] per kg of body weight per min and at an aerosolization rate of 0.28 ml/min. Again, three sheep were aerosolized for 30 minutes and the other three sheep were aerosolized for 60 minutes.

sheep [3] = assay: as above; assay type: in vivo; settings: baseline conditions, aerosolized, 250, 500, and 100 ng per kg per min
[4] = U44069 iv infusion alone, 1 ng per kg per min

## CCCCC[C@H](O)/C=C/C1C2COC(C2)C1C/C=C\CCCC(=O)O (stereo partly drawn) [U44069, 9,11-dideoxy,9α,11α-epoxymethanoprostaglandin F2α, reference compound]
[1]; [4]
  left atrial pressure: did not alter left atrial pressure significantly
  pulmonary arterial pressure (PPA) relative to baseline: significantly increased
  pulmonary vascular resistance (PVR): dramatic increase

## CCCCC[C@H](O)CC[C@@H]1[C@H]2Cc3cccc(OCC(=O)O)c3C[C@H]2C[C@H]1O [UT-15, 9-deoxy-2′,9-alpha-methano-3-oxa-4,5,6-trinor-3,7-(1′,3′-interphenylene)-13,14-dihydro-prostaglandin F1]
Blood platelets
  anti-aggregatory action on blood platelets: potent anti-aggregatory action
Sheep [2]; aerosol
  central venous pressure (PCV) relative to baseline: no statistical difference
Sheep [2]; aerosolized, all 3 delivery rates
  pulmonary vascular resistance (PVR): significant decrease
Sheep [2]; aerosolized
  systemic arterial pressure (PSYS): no significant effect
  cardiac output (CO) relative to baseline: no significant changes
Sheep [2]; aerosolized, not statistically different
  pulmonary arterial pressure (PPA) relative to baseline: general trend for PPA to decrease
Sheep [2]; aerosolized, mean values increased
  left atrial pressure (PLA) relative to baseline: neither intravenous nor aerosolized UT-15 caused PLA to significantly change
Sheep [2]; intravenous
  pulmonary vascular resistance (PVR): no significant effect
  systemic arterial pressure (PSYS): no significant effect
  cardiac output (CO) relative to baseline: no significant changes
  central venous pressure (PCV) relative to baseline: no statistical difference
  pulmonary arterial pressure (PPA) relative to baseline: same effects
Sheep [2]; intravenous, mean values decreased
  left atrial pressure (PLA) relative to baseline: neither intravenous nor aerosolized UT-15 caused PLA to significantly change
Sheep [3]
  pulmonary vascular driving pressure (PPA minus PLA) versus baseline: significant
[1]; aerosolized UT-15 compared to intravascularly administered UT-15
  potency and efficacy in attenuating chemically induced pulmonary hypertension (increase in PVR): greater potency and efficacy
[1]; during iv U44069, aerosol UT-15, only 500 ng per kg per min
  central venous pressure: different from the corresponding intravenous UT-15 infusion value
[1]; during iv U44069, aerosolized UT-15, 500 and 1000 ng per kg per min
  pulmonary arterial pressure (PPA): back to normal values
[1]; during iv U44069, aerosolized UT-15, any of the three delivery rates
  pulmonary vascular resistance (PVR) relative to baseline PVR: no significant difference
[1]; during iv U44069, intravascular UT-15
  pulmonary arterial pressure (PPA) versus U44069 value: decrease significantly
[1]; during iv U44069, intravenously infused UT-15, 500 and 1000 ng per kg per min
  pulmonary vascular resistance (PVR), U44069-induced increase: significantly attenuated
[1]; during iv U44069, intravenously infused UT-15, all three delivery rates
  left atrial pressure versus U44069 value: significant decrease
[1]; in vivo
  peripheral effects (heart rate, cardiac output): no apparent peripheral effects
